Source: publication PMC10487436, “Towards Anticancer and Antibacterial Agents: Design and Synthesis of 1,2,3-Triazol-quinobenzothiazine Derivatives” (International Journal of Molecular Sciences, 2023)
Values after ≈ are worked out from the molar mass of the structure shown.

Tests used:
[1] = test system: vancomycin-resistant E. faecalis VRE 342B; experiment: MIC, microtitration broth method, VRE1; assay type: cell-based; details: Enterococcus faecalis, 24 h at 37 °C
Protocol: (§1) In vitro antibacterial activity of the synthesized compounds was evaluated against representatives of multidrug-resistant bacteria, three clinical isolates of methicillin-resistant S. aureus: clinical isolates of animal origin, MRSA 63718 (Department of Infectious Diseases and Microbiology, Faculty of Veterinary Medicine, University of Veterinary Sciences Brno, Czech Republic), carrying the mecA gene; and MRSA SA 630 and MRSA SA 3202 [52] (National Institute of Public Health, Prague, Czech Republic), both of human origin. […] Vancomycin- and methicillin-susceptible S. aureus ATCC 29213 and vancomycin-susceptible Enterococcus faecalis ATCC 29212, obtained from the American Type Culture Collection, were used as the reference and quality control strains. Three vanA gene-carrying vancomycin-resistant isolates of E. faecalis (VRE 342B, VRE 368, VRE 725B) were provided by Oravcova et al..
(§2) The minimum inhibitory concentrations (MICs) were evaluated by the microtitration broth method according to the CLSI, with some modifications. The compounds were dissolved in DMSO (Sigma, St. Louis, MO, USA) to obtain a concentration of […] and diluted in a microtitration plate in an appropriate medium, i.e., Cation Adjusted Mueller–Hinton Broth (CaMH, Oxoid, Basingstoke, UK) for staphylococci, and Brain Heart Infusion Broth (BHI, Oxoid) for enterococci, to reach the final concentration of 256–0.125 µg/mL. Microtiter plates were inoculated with test micro-organisms so that the final concentration of bacterial cells was 10^5. […] A drug-free control and a sterility control were included. The plates were incubated for 24 h at 37 °C for staphylococci and enterococci. […] The experiments were repeated three times.

[2] = test system: Staphylococcus aureus ATCC 29213; experiment: MBC, agar aliquot subculture method, SA; assay type: cell-based; details: ATCC29213
Protocol: (§3) For the above-mentioned strains/isolates, the agar aliquot subculture method was used as a test for bactericidal agents. After the MIC value determination, the inoculum was transferred to CaMH (Oxoid) for staphylococci, BHI (Oxoid) for enterococci, and Middlebrook 7H9 (Difco) for mycobacteria medium using a multipoint inoculator. As indicated above, the plates were incubated on a thermostat at 37 °C for the appropriate time for each micro-organism. The lowest concentration of test compound at which ≤5 colonies were obtained was then evaluated as MBC, corresponding to a 99.9% decrease in CFU relative to the original inoculum.

[3] = test system: Enterococcus faecalis ATCC 29213; experiment: MIC, microtitration broth method, EF; assay type: cell-based; details: ATCC29213, 24 h at 37 °C
[4] = test system: Mycobacterium smegmatis ATCC 700084; experiment: MBC, agar aliquot subculture method, MS; assay type: cell-based; details: Mycolicibacterium smegmatis, ATCC700084
Protocol: as §3

[5] = test system: Staphylococcus aureus ATCC 29213; experiment: MIC, microtitration broth method, SA; assay type: cell-based; details: ATCC29213, 24 h at 37 °C
Protocol: as §1, §2

[6] = test system: A549 (human lung carcinoma); experiment: WST-1 proliferation assay, A549; assay type: cell-based; details: Homo sapiens, A549, 72 h exposure
Protocol: (§4) Compounds were evaluated for their antiproliferative activity using three cultured cell lines: A549 (human lung carcinoma, ATCC, Manassas, VA, USA), SNB-19 (human glioblastoma, DSMZ, German Collection of Microorganisms and Cell Cultures), T-47D (human breast cancer, ATCC, Manassas, VA, USA), and NHDF (normal human dermal fibroblasts, ATCC, Manassas, VA, USA). The cultured cells were kept at 37 °C and 5% CO2. The cells were seeded (1 × 10^4 cells/well/100 μL DMEM supplemented with 10% FCS, streptomycin, and penicillin) using 96-well plates (corning). Cells were counted in a hemocytometer (Burker chamber) using a phase contrast Olympus IX50 microscope equipped with a Sony SSC-DC58 AP camera and an Olympus DP10 digital camera.
(§5) The antiproliferative effect of the compounds exerted on cancer and normal cells was determined using the Cell Proliferation Reagent WST-1 assay (Roche Molecular Biochemicals, Mannheim, Germany). This assay is based on a colorimetric method using the enzymatic ability of viable cells to cause the bright, red-colored stable tetrazolium monosodium salt [2-(4-iodophenyl)-3-(4-nitrophenyl)-5-(2,4-disulfophenyl)–2H-tetra-zolium] to transform into the dark, red-colored soluble formazan. […] An increase in the amount of formazan dye formed correlated with the number of metabolically active cells in the culture. The formazan dye produced by metabolically active cells was quantified by absorbance readings at appropriate wavelengths. The examined cells were exposed to the tested compounds (1 mM DMSO stock) for 72 h at various concentrations (0.1–100 μM). The control was performed in order to eliminate the DMSO effect at the concentration used. Cell cultures were incubated with WST-1 (10 μL) for 1 h. The absorbance of the samples was measured against a background control at 450 nm using a microplate reader with a reference wavelength at 600 nm. The obtained results are expressed as the means of at least two independent experiments performed in triplicate. The antiproliferative activity of the tested compounds was compared to that of cisplatinum. The values of IC50 (a concentration of a compound that is required for 50% inhibition) were calculated from the dose-response relationship with respect to control. The results were reported as the mean (±std) of three separate experiments.

[7] = test system: vancomycin-resistant E. faecalis VRE 368; experiment: MIC, microtitration broth method, VRE2; assay type: cell-based; details: Enterococcus faecalis, 24 h at 37 °C
Protocol: as §1, §2

[8] = test system: Mycobacterium smegmatis ATCC 700084; details: 3 days; for Conc.: lowest multiple of MBC with at least 70% inhibition of respiratory activity / Conc.: lowest multiple of MIC with at least 70% inhibition of respiratory activity: MTT; for M. smegmatis Respiration Inhibition: at the concentration (lowest multiple of MIC with at least 70% inhibition)
[9] = test system: Mycobacterium marinum CAMP 5644; experiment: MBC, agar aliquot subculture method, MM; assay type: cell-based; details: CAMP5644
Protocol: as §3

[10] = test system: methicillin-resistant S. aureus 63718; experiment: MIC, microtitration broth method, MRSA3; assay type: cell-based; details: Staphylococcus aureus; 24 h at 37 °C
Protocol: as §1, §2

[11] = test system: methicillin-resistant S. aureus SA 630; experiment: MIC, microtitration broth method, MRSA2; assay type: cell-based; details: Staphylococcus aureus; 24 h at 37 °C
Protocol: as §1, §2

[12] = test system: methicillin-resistant S. aureus SA 3202; experiment: MIC, microtitration broth method, MRSA1; assay type: cell-based; details: Staphylococcus aureus; 24 h at 37 °C
Protocol: as §1, §2

[13] = test system: SNB-19 (human glioblastoma); experiment: WST-1 proliferation assay, SNB-19; assay type: cell-based; details: Homo sapiens, SNB-19, 72 h exposure
Protocol: as §4, §5

[14] = test system: T-47D (human breast cancer); experiment: WST-1 proliferation assay, T47D; assay type: cell-based; details: Homo sapiens, T47D, 72 h exposure
Protocol: as §4, §5

[15] = test system: methicillin-resistant S. aureus SA 3202; experiment: MBC, agar aliquot subculture method, MRSA1; assay type: cell-based; details: Staphylococcus aureus
Protocol: as §3

[16] = test system: vancomycin-resistant E. faecalis VRE 725B; experiment: MIC, microtitration broth method, VRE3; assay type: cell-based; details: Enterococcus faecalis, 24 h at 37 °C
Protocol: as §1, §2

[17] = test system: Mycobacterium smegmatis ATCC 700084; experiment: MIC, broth dilution micro-method, MS; assay type: cell-based; details: Mycolicibacterium smegmatis, ATCC700084, 72 h; 3 days at 37 °C
[18] = test system: vancomycin-resistant E. faecalis VRE 368; experiment: MBC, agar aliquot subculture method, VRE2; assay type: cell-based; details: Enterococcus faecalis
Protocol: as §3

[19] = test system: Mycobacterium marinum CAMP 5644; experiment: MIC, broth dilution micro-method, MM; assay type: cell-based; details: CAMP5644, 504 h, 21 days at 28 °C
[20] = test system: methicillin-resistant S. aureus SA 630; experiment: MBC, agar aliquot subculture method, MRSA2; assay type: cell-based; details: Staphylococcus aureus
Protocol: as §3

[21] = test system: methicillin-resistant S. aureus 63718; experiment: MBC, agar aliquot subculture method, MRSA3; assay type: cell-based; details: Staphylococcus aureus
Protocol: as §3

[22] = test system: NHDF (normal human dermal fibroblasts); experiment: WST-1 proliferation assay, NHDF; assay type: cell-based; details: Homo sapiens, NHDF, normal cells, 72 h exposure
Protocol: as §4, §5

[23] = test system: human cancer cell lines (A549, SNB-19, and T-47D); experiment: WST-1 proliferation assay, cancer cell line panel; assay type: cell-based; details: SNB-19, A549, T47D, read-out: IC50 range over the tested cancer cell lines
Protocol: as §4
The antiproliferative effect of the compounds exerted on cancer and normal cells was determined using the Cell Proliferation Reagent WST-1 assay (Roche Molecular Biochemicals, Mannheim, Germany). […] The formazan dye produced by metabolically active cells was quantified by absorbance readings at appropriate wavelengths. […] The absorbance of the samples was measured against a background control at 450 nm using a microplate reader with a reference wavelength at 600 nm. The obtained results are expressed as the means of at least two independent experiments performed in triplicate. […]

[24] = test system: methicillin-resistant S. aureus 63718; design: method as in PMID 20386717; details: MRSA 63718, characterisation of the isolate; cited from earlier work
Enterococcus faecalis = experiment: MBC, agar aliquot subculture method, EF; assay type: cell-based; details: ATCC29213
Protocol: as §3

SMILES | MIC [1] | MIC [3] | MIC [5] | IC50 [6] | MIC [7] | MIC [10] | MIC [11] | MIC [12] | IC50 [13] | IC50 [14] | MIC [16] | MIC [17] | MIC [19] | MBC [2] | MBC [4] | MBC [9] | MBC [15] | MBC [20] | MBC [21] | IC50 [22] | other results
C[n+]1cc2c(c3ccccc31)Nc1ccc(OCc3cn(-c4ccc(Cl)cc4)nn3)cc1S2 [2m, 5-Methyl-9-(1-(4-chlorophenyl)-1H-1,2,3-triazol-4-yl)methoxy-12H-quino [3,4-b][1,4]benzothiazinium chloride] | > 524 µM | 65.5 µM | 65.5 µM | 16.8 ± 1.2 µM | 524 µM | 32.7 µM | 131 µM | 131 µM | 23.4 ± 1.5 µM | 8.9 ± 0.9 µM | 524 µM | 8.19 µM | 16.3 µM | 65.5 µM | 8.19 µM | 16.3 µM | 131 µM | 131 µM | 32.7 µM | > 100 µM | Conc.: lowest multiple of MBC with at least 70% inhibition of respiratory activity [8]: 1× MIC (1× MBC); Conc.: lowest multiple of MIC with at least 70% inhibition of respiratory activity [8]: 1× MIC (1× MBC); viability of M. smegmatis at MIC value ([8]; Mycobacterium smegmatis): less than 70%; M. smegmatis Respiration Inhibition [8]: 87.1%; MBC [18]: 524 µM
CN[C@H](CC(C)C)C(=O)N[C@H]1C(=O)N[C@@H](CC(N)=O)C(=O)N[C@H]2C(=O)N[C@H]3C(=O)N[C@H](C(=O)N[C@H](C(=O)O)c4cc(O)cc(O)c4-c4cc3ccc4O)[C@H](O)c3ccc(c(Cl)c3)Oc3cc2cc(c3O[C@@H]2O[C@H](CO)[C@@H](O)[C@H](O)[C@H]2O[C@H]2C[C@](C)(N)[C@H](O)[C@H](C)O2)Oc2ccc(cc2Cl)[C@H]1O [vancomycin] | – | – | – | – | – | – | – | – | – | – | – | – | – | – | – | – | – | – | – | – | MIC of vancomycin [24]: 2 µg/mL
CC1(C)S[C@@H]2[C@H](NC(=O)[C@H](N)c3ccccc3)C(=O)N2[C@H]1C(=O)O [AMP, ampicillin, reference compound] | – | 2.81 µM (≈ 0.982 µg/mL) | 5.72 µM (≈ 2 µg/mL) | – | – | 45.8 µM (≈ 16 µg/mL) | > 45.8 µM | > 45.8 µM | – | – | – | – | – | 5.72 µM (≈ 2 µg/mL) | – | – | > 45.8 µM | > 45.8 µM | 45.8 µM (≈ 16 µg/mL) | – | MBC (Enterococcus faecalis): 2.81 µM (≈ 0.982 µg/mL)

Second part, led by results:

MIC [1] | MIC [3] | MIC [5] | IC50 [6] | MIC [7] | MIC [10] | MIC [11] | MIC [12] | IC50 [13] | IC50 [14] | MIC [16] | MIC [17] | MIC [19] | SMILES | MBC [2] | MBC [4] | MBC [9] | MBC [15] | MBC [20] | MBC [21] | IC50 [22] | other results
524 µM | 262 µM | 131 µM | 0.45 ± 0.08 µM | 262 µM | 131 µM | 262 µM | 262 µM | 0.23 ± 0.06 µM | 2.1 ± 0.5 µM | 262 µM | 32.7 µM | 65.5 µM | C=CCn1cc(COc2ccc3c(c2)Sc2c[n+](C)c4ccccc4c2N3)nn1 [2a, 5-Methyl-9-(1-allyl-1H-1,2,3-triazol-4-yl)methoxy-12H-quino [3,4-b][1,4]benzothiazinium chloride] | 131 µM | 32.7 µM | 65.5 µM | – | 262 µM | 131 µM | 47.8 ± 3.5 µM | IC50 [23]: 0.23 to 2.1 µM
524 µM | 524 µM | 65.5 µM | 10.5 ± 0.7 µM | 524 µM | 32.7 µM | 65.5 µM | 65.5 µM | 8.8 ± 0.4 µM | 19.3 ± 1.2 µM | 524 µM | 16.3 µM | 16.3 µM | C[n+]1cc2c(c3ccccc31)Nc1ccc(OCc3cn(CSc4ccccc4)nn3)cc1S2 [2j, 5-Methyl-9-(1-(phenylthio)methyl-1H-1,2,3-triazol-4-yl)methoxy-12H-quino [3,4-b][1,4]benzothiazinium chloride] | 65.5 µM | 16.3 µM | 16.3 µM | 65.5 µM | 65.5 µM | 32.7 µM | 28.7 ± 1.2 µM | Conc.: lowest multiple of MBC with at least 70% inhibition of respiratory activity [8]: 2× MIC (2× MBC); Conc.: lowest multiple of MIC with at least 70% inhibition of respiratory activity [8]: 2× MIC (2× MBC); M. smegmatis Respiration Inhibition [8]: 87.6%
